# The kinase profiling compilation of Christmann-Franck et al. (2016)
# Assays:
# Assay in all cases: radiometric filter-binding kinase assay, Kinase HotSpot
# Details in all cases: compound 0.5 µM; ATP 10 µM
# CSNK1G2 (human) = CSNK1G2 (human) (UniProt P78368)
# FGR (human) = FGR (human) (UniProt P09769)
# PRKD2 (human) = PRKD2 (human) (UniProt Q9BZL6)
# ROS1 (human) = ROS1 (human) (UniProt P08922)
# MUSK (human) = MUSK (human) (UniProt O15146)
# ALK (human) = ALK (human) (UniProt Q9UM73)
# DYRK1A (human) = DYRK1A (human) (UniProt Q13627)
# MAP3K8 (human) = MAP3K8 (human) (UniProt P41279)
# PNCK (human) = PNCK (human) (UniProt Q6P2M8)
# CDK1 CCNB1 (human) = CDK1 CCNB1 (human) (UniProt P06493+P14635)
# MAPK8 (human) = MAPK8 (human) (UniProt P45983)
# SGK3 (human) = SGK3 (human) (UniProt Q96BR1)
# SRC (human) = SRC (human) (UniProt P12931)
# RAF1 (human) = RAF1 (human) (UniProt P04049)
# MAP3K7 TAB1 (human) = MAP3K7 TAB1 (human) (UniProt O43318+Q15750)
# DCLK2 (human) = DCLK2 (human) (UniProt Q8N568)
# AKT1 (human) = AKT1 (human) (UniProt P31749)
# MAPK11 (human) = MAPK11 (human) (UniProt Q15759)
# CHEK2 (human) = CHEK2 (human) (UniProt O96017)
# PAK1 (human) = PAK1 (human) (UniProt Q13153)
# WNK2 (human) = WNK2 (human) (UniProt Q9Y3S1)
# BTK (human) = BTK (human) (UniProt Q06187)
# ACVR1B (human) = ACVR1B (human) (UniProt P36896)
# DYRK2 (human) = DYRK2 (human) (UniProt Q92630)
# TAOK2 (human) = TAOK2 (human) (UniProt Q9UL54)
# KDR (human) = KDR (human) (UniProt P35968)
# MAP4K2 (human) = MAP4K2 (human) (UniProt Q12851)
# IKBKE (human) = IKBKE (human) (UniProt Q14164)
# MET (human) = MET (human) (UniProt P08581)
# STK10 (human) = STK10 (human) (UniProt O94804)
# PDGFRA (human) = PDGFRA (human) (UniProt P16234)
# SGK2 (human) = SGK2 (human) (UniProt Q9HBY8)
# MAP4K4 (human) = MAP4K4 (human) (UniProt O95819)
# PRKCZ (human) = PRKCZ (human) (UniProt Q05513)
# EPHA8 (human) = EPHA8 (human) (UniProt P29322)
# EPHA4 (human) = EPHA4 (human) (UniProt P54764)
# ULK1 (human) = ULK1 (human) (UniProt O75385)
# ACVRL1 (human) = ACVRL1 (human) (UniProt P37023)
# CAMK2G (human) = CAMK2G (human) (UniProt Q13555)
# MAPK3 (human) = MAPK3 (human) (UniProt P27361)
# CDC42BPA (human) = CDC42BPA (human) (UniProt Q5VT25)
# PLK3 (human) = PLK3 (human) (UniProt Q9H4B4)
# PNCK (human), sequence (Q6P2M8 whole entry, looked up): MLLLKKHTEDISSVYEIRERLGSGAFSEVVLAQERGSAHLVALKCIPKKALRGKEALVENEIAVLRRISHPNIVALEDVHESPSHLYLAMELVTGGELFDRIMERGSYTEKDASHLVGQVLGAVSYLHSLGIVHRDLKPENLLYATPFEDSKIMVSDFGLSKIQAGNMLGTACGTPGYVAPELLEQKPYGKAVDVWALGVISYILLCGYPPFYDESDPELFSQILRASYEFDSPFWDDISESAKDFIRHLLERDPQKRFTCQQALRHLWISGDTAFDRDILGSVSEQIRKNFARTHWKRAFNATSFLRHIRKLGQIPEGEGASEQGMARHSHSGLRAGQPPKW
# CAMK2G (human), sequence (Q13555 whole entry, looked up): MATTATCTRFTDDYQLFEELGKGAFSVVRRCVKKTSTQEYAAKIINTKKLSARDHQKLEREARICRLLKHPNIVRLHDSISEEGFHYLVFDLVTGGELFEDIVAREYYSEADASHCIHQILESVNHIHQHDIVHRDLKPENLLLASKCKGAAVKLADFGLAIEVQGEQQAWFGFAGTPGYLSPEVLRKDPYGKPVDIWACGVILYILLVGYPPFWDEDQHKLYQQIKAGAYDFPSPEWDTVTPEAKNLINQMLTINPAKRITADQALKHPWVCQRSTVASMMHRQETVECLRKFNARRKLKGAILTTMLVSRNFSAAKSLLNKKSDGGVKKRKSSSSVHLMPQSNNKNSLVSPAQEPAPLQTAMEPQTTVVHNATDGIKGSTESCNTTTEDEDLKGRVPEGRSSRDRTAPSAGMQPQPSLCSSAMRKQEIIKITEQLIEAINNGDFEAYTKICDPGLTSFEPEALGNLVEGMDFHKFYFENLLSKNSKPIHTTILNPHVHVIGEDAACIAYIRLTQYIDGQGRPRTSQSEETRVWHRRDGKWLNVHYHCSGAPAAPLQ
# WNK2 (human), sequence (Q9Y3S1 whole entry, looked up): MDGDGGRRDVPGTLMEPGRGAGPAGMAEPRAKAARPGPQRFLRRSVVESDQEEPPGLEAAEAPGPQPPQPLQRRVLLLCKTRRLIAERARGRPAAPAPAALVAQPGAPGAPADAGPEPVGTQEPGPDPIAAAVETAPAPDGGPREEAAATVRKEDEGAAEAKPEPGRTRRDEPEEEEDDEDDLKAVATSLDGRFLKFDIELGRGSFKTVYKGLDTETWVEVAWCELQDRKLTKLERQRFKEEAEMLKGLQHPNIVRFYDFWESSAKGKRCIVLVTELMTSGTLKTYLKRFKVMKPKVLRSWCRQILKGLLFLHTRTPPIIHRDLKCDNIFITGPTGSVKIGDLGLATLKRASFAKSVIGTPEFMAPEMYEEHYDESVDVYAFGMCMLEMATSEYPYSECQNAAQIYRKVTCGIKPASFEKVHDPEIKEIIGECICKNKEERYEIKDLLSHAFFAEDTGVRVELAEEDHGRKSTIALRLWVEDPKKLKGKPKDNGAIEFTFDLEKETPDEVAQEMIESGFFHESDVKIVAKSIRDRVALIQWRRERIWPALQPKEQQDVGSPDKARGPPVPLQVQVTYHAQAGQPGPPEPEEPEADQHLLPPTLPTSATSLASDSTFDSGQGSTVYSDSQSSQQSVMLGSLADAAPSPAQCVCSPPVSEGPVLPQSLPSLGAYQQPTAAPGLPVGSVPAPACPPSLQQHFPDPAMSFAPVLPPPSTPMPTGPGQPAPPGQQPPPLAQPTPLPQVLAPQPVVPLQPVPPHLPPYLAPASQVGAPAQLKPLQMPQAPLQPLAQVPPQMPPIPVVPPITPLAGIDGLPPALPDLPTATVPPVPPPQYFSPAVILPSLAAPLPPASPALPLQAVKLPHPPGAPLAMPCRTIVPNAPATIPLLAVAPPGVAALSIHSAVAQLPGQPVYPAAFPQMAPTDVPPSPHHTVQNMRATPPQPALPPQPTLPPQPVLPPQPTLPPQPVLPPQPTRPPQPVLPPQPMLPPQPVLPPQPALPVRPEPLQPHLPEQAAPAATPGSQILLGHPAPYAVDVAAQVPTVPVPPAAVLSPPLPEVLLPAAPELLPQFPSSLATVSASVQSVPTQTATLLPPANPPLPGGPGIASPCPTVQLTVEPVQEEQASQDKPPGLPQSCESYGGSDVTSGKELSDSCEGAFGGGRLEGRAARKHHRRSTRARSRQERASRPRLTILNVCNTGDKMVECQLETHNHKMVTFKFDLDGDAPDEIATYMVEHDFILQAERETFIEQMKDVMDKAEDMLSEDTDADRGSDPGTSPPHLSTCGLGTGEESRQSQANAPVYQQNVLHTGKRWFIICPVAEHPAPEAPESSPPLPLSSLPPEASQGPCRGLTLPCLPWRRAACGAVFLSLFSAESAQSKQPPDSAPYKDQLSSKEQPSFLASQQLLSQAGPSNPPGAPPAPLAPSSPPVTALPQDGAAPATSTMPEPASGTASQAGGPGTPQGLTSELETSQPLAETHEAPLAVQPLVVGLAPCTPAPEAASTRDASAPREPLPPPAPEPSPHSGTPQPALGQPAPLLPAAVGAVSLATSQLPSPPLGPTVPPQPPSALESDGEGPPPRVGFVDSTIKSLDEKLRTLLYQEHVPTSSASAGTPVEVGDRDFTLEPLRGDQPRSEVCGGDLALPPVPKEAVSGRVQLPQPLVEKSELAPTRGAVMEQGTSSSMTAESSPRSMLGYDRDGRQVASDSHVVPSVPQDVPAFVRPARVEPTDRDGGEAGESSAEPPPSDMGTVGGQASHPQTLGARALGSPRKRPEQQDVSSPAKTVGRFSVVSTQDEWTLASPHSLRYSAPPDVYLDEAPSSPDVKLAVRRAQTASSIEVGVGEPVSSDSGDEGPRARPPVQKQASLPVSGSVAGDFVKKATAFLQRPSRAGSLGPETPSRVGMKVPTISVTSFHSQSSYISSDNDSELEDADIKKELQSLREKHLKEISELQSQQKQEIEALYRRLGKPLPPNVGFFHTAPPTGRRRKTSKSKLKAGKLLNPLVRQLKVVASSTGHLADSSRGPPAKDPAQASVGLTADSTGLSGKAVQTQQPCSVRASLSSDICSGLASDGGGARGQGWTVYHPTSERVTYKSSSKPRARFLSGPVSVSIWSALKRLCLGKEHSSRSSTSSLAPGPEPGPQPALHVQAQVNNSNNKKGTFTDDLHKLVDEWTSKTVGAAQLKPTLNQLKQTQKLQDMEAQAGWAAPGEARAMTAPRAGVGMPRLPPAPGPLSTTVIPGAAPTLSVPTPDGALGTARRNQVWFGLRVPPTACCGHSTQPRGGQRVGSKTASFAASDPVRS
# MAPK8 (human), sequence (P45983 whole entry, looked up): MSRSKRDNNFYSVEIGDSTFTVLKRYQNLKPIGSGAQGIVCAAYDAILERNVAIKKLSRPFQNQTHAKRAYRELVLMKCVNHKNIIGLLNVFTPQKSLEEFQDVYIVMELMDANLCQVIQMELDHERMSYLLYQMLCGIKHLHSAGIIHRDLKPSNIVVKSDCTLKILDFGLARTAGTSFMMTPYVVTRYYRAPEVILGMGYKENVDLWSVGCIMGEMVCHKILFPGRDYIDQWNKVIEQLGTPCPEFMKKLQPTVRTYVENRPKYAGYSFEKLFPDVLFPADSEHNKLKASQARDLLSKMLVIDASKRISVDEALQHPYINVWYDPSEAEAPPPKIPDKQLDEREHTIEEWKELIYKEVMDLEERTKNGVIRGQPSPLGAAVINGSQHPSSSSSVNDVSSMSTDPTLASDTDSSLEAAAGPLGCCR
# MAPK11 (human), sequence (Q15759 whole entry, looked up): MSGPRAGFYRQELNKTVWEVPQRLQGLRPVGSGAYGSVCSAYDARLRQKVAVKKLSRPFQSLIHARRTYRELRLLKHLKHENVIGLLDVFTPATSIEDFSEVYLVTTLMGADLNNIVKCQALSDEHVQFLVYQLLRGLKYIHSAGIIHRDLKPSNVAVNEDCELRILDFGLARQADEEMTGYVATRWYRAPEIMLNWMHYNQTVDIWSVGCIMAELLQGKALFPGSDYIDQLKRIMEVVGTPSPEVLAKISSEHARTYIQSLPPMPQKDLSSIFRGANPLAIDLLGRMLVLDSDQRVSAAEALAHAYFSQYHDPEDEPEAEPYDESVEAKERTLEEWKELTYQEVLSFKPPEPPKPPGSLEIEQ
# AKT1 (human), sequence (P31749 whole entry, looked up): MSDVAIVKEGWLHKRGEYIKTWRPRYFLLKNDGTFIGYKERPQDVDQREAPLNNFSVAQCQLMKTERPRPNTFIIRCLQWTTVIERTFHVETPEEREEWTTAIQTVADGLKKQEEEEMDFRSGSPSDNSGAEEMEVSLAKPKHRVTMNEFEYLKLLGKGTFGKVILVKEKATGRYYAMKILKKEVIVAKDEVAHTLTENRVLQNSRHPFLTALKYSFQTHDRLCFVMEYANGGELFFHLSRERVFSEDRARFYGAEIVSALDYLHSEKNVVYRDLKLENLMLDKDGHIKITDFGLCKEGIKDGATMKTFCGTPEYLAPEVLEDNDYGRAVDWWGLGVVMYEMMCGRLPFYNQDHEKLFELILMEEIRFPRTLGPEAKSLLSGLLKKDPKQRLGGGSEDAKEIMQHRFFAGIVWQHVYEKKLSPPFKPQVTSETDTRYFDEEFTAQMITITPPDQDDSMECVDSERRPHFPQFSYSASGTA
# SRC (human), sequence (P12931 whole entry, looked up): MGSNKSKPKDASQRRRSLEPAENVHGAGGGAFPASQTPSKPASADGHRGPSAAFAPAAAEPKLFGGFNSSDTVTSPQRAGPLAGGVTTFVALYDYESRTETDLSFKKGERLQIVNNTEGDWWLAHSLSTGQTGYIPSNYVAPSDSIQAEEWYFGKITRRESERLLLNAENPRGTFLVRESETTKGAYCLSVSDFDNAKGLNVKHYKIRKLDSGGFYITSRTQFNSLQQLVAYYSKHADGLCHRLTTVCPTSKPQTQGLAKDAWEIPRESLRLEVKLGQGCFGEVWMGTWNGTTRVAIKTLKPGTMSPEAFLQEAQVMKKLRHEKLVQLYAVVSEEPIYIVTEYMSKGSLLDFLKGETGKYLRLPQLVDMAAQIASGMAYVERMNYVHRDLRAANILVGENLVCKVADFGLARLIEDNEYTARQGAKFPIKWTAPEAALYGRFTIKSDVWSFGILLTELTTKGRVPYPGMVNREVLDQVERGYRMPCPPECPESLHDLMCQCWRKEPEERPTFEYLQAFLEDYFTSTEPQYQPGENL
smiles,measurement,setting,value
N#Cc1c(NC(=O)c2cccc3ccccc23)sc2c1CCCC2,residual activity,CSNK1G2 (human),103%
same,residual activity,FGR (human),98.1%
same,residual activity,PRKD2 (human),126%
same,residual activity,ROS1 (human),96.8%
same,residual activity,MUSK (human),94.8%
same,residual activity,ALK (human),96.4%
same,residual activity,DYRK1A (human),96.7%
same,residual activity,MAP3K8 (human),99.8%
same,residual activity,PNCK (human),104%
same,residual activity,CDK1 CCNB1 (human),111%
same,residual activity,MAPK8 (human),87.3%
same,residual activity,SGK3 (human),107%
same,residual activity,SRC (human),93.5%
same,residual activity,RAF1 (human),92.9%
same,residual activity,MAP3K7 TAB1 (human),99.7%
same,residual activity,DCLK2 (human),96.5%
same,residual activity,AKT1 (human),101%
same,residual activity,MAPK11 (human),104%
same,residual activity,CHEK2 (human),98.5%
same,residual activity,PAK1 (human),97.4%
same,residual activity,WNK2 (human),109%
same,residual activity,BTK (human),95%
same,residual activity,ACVR1B (human),96.5%
same,residual activity,DYRK2 (human),119%
same,residual activity,TAOK2 (human),99.8%
same,residual activity,KDR (human),100%
same,residual activity,MAP4K2 (human),86.1%
same,residual activity,IKBKE (human),94.3%
same,residual activity,MET (human),109%
same,residual activity,STK10 (human),97.7%
same,residual activity,PDGFRA (human),101%
same,residual activity,SGK2 (human),101%
same,residual activity,MAP4K4 (human),88.9%
same,residual activity,PRKCZ (human),102%
same,residual activity,EPHA8 (human),104%
same,residual activity,EPHA4 (human),99%
same,residual activity,ULK1 (human),99.8%
same,residual activity,ACVRL1 (human),107%
same,residual activity,CAMK2G (human),99.6%
same,residual activity,MAPK3 (human),97.1%
same,residual activity,CDC42BPA (human),103%
same,residual activity,PLK3 (human),99.6%
O=C(O)c1ccc2c3c1cccc3c(=O)n1c3ccccc3nc21,residual activity,CSNK1G2 (human),93.5%
same,residual activity,FGR (human),98.9%
same,residual activity,PRKD2 (human),86.8%
same,residual activity,ROS1 (human),95.2%
same,residual activity,MUSK (human),47.1%
same,residual activity,ALK (human),92.7%
same,residual activity,DYRK1A (human),55.5%
same,residual activity,MAP3K8 (human),88.3%
same,residual activity,PNCK (human),101%
same,residual activity,CDK1 CCNB1 (human),65%
same,residual activity,MAPK8 (human),98%
same,residual activity,SGK3 (human),103%
same,residual activity,SRC (human),96.3%
same,residual activity,RAF1 (human),97.5%
same,residual activity,MAP3K7 TAB1 (human),74.4%
same,residual activity,DCLK2 (human),96.7%
same,residual activity,AKT1 (human),101%
same,residual activity,MAPK11 (human),105%
same,residual activity,CHEK2 (human),75.2%
same,residual activity,PAK1 (human),95.6%
same,residual activity,WNK2 (human),106%
same,residual activity,BTK (human),109%
same,residual activity,ACVR1B (human),93.5%
same,residual activity,DYRK2 (human),50.7%
same,residual activity,TAOK2 (human),95.2%
same,residual activity,KDR (human),101%
same,residual activity,MAP4K2 (human),38%
same,residual activity,IKBKE (human),57.3%
same,residual activity,MET (human),104%
same,residual activity,STK10 (human),88.6%
same,residual activity,PDGFRA (human),94.4%
same,residual activity,SGK2 (human),103%
same,residual activity,MAP4K4 (human),43.4%
same,residual activity,PRKCZ (human),94.3%
same,residual activity,EPHA8 (human),89.4%
same,residual activity,EPHA4 (human),103%
same,residual activity,ULK1 (human),83.5%
same,residual activity,ACVRL1 (human),103%
same,residual activity,CAMK2G (human),96.5%
same,residual activity,MAPK3 (human),102%
same,residual activity,CDC42BPA (human),96.1%
same,residual activity,PLK3 (human),93.9%
O=c1c2ccccc2[nH]c(=S)n1CCN1CCC(=C(c2ccc(F)cc2)c2ccc(F)cc2)CC1,residual activity,CSNK1G2 (human),98.6%
same,residual activity,FGR (human),95.4%
same,residual activity,PRKD2 (human),98.9%
same,residual activity,ROS1 (human),98.8%
same,residual activity,MUSK (human),93.6%
same,residual activity,ALK (human),104%
same,residual activity,DYRK1A (human),99.9%
same,residual activity,MAP3K8 (human),100%
same,residual activity,PNCK (human),109%
same,residual activity,CDK1 CCNB1 (human),83%
same,residual activity,MAPK8 (human),98.9%
same,residual activity,SGK3 (human),114%
same,residual activity,SRC (human),103%
same,residual activity,RAF1 (human),96.7%
same,residual activity,MAP3K7 TAB1 (human),103%
same,residual activity,DCLK2 (human),101%
same,residual activity,AKT1 (human),98.3%
same,residual activity,MAPK11 (human),99.3%
same,residual activity,CHEK2 (human),106%
same,residual activity,PAK1 (human),94.6%
same,residual activity,WNK2 (human),96.3%
same,residual activity,BTK (human),105%
same,residual activity,ACVR1B (human),103%
same,residual activity,DYRK2 (human),95.4%
same,residual activity,TAOK2 (human),109%
same,residual activity,KDR (human),93.1%
same,residual activity,MAP4K2 (human),112%
same,residual activity,IKBKE (human),101%
same,residual activity,MET (human),114%
same,residual activity,STK10 (human),96.2%
same,residual activity,PDGFRA (human),97%
same,residual activity,SGK2 (human),99.1%
same,residual activity,MAP4K4 (human),99.8%
same,residual activity,PRKCZ (human),102%
same,residual activity,EPHA8 (human),102%
same,residual activity,EPHA4 (human),99.4%
same,residual activity,ULK1 (human),98.1%
same,residual activity,ACVRL1 (human),101%
same,residual activity,CAMK2G (human),97.9%
same,residual activity,MAPK3 (human),105%
same,residual activity,CDC42BPA (human),97.7%
same,residual activity,PLK3 (human),96.2%
